Results taken from patent publication US6355633B1, “Aryl sulfonic acids and derivatives as FSH antagonists” (American Home Products Corporation, priority 1999, dated 2002).

What was measured:
[1] = test system: FSH-induced changes in ovarian follicular maturation; assay: Immature Rat Test Procedure (FSH-induced organ wet weight); assay type: in vivo; conditions: immature rats, twice daily for three days with half-maximal dose of hFSH; for IC50 (mg/Kg) ovaries: ovarian wet weight; for IC50 (mg/Kg) uterus: uterine wet weight
Procedure: Immature Rat Test Procedure
In order to assess the ability of compounds to affect FSH-induced changes in ovarian follicular maturation in vivo, immature rats (18 days of age) are treated twice daily for three days with compound in the presence of a half-maximal dose of purified human FSH. Animals are treated via the i.p. or p.o. routes. On the fourth day following treatment, animals are euthanized and the ovaries, uterus and spleen (the spleen is a control tissue that should not respond to FHS stimulation) collected for wet weight determination. In each experiment animals treated with vehicle alone or FSH alone are used as negative and positive controls, respectively.

FSH receptor = target: T1, FSH receptor (Rattus norvegicus, UniProt P20395); conditions: literature report; cited from earlier work
T1 construct: endogenous in cells; host or cells: primary ovarian granulosa cells of DES-treated immature Sprague-Dawley rats
T1 sequence (P20395 18-692): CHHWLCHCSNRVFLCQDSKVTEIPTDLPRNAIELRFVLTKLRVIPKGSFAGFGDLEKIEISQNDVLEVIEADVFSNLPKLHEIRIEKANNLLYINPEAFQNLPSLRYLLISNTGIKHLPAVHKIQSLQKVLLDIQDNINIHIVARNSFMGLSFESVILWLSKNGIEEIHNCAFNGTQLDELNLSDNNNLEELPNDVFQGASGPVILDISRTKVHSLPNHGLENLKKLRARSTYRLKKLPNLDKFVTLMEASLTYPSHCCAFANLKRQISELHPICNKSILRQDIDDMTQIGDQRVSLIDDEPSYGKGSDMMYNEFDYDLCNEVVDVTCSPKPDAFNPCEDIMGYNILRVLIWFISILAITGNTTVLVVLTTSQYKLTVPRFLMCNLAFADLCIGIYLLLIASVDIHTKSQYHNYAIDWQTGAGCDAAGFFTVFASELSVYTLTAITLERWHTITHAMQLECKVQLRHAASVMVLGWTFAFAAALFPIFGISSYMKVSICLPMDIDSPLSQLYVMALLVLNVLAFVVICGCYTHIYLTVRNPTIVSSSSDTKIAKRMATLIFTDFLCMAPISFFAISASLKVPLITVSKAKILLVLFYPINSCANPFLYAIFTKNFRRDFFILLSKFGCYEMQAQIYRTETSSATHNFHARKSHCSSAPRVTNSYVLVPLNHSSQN

Row | IC50 (mg/Kg) ovaries ([1]; ip) | IC50 (mg/Kg) uterus ([1]; ip) | IC50 (mg/Kg) ovaries ([1]; po) | IC50 (mg/Kg) uterus ([1]; po) | SMILES | inhibition of FSH binding to its receptor (FSH receptor)
1 | 1.1 mg/kg | 0.5 mg/kg | 4.8 mg/kg | 1.9 mg/kg | CSc1ccc(C(=O)Nc2ccc(/C=C/c3ccc(NC(=O)c4ccc(SC)c(S(=O)(=O)N5CCOCC5)c4)cc3S(=O)(=O)OC(C)C)c(S(=O)(=O)OC(C)C)c2)cc1S(=O)(=O)N1CCOCC1 [Example 27k, 2,2′-[(E)-1,2-Ethenediyl]bis[5-[[4-(methylthio)-3-(4-morpholinylsulfonyl)benzoyl]amino]benzenesulfonic Acid], Bis(1-methylethyl) Ester] | 
2 |  |  | 8.4 mg/kg | 7.9 mg/kg | CC(C)OS(=O)(=O)c1cc(NC(=O)c2ccc(S(C)(=O)=O)c([N+](=O)[O-])c2)ccc1/C=C/c1ccc(NC(=O)c2ccc(S(C)(=O)=O)c([N+](=O)[O-])c2)cc1S(=O)(=O)OC(C)C [Example 27m, 2,2′-[(E)-1,2-Ethenediyl]bis[5-[[(4-methylsulfonyl)-3-(nitro)-benzoyl]amino]benzenesulfonic Acid], Bis(1-methylethyl) Ester] | 
3 |  |  | >10 mg/kg | 10 mg/kg | CCS(=O)(=O)c1ccc(C(=O)Nc2ccc(/C=C/c3ccc(NC(=O)c4ccc(S(=O)(=O)CC)cc4)cc3S(=O)(=O)OC(C)C)c(S(=O)(=O)OC(C)C)c2)cc1 [Example 27z, 2,2′-[(E)-1,2-Ethenediyl]bis[5-[[4-(ethylsulfonyl)benzoyl]amino]benzenesulfonic acid], Bis(1-methylethyl) Ester] | 
4 |  |  |  |  | Cc1ccc(C(=O)Nc2ccc(S(=O)(=O)O)c3cc(S(=O)(=O)O)cc(S(=O)(=O)O)c23)cc1NC(=O)c1cccc(NC(=O)Nc2cccc(C(=O)Nc3cc(C(=O)Nc4ccc(S(=O)(=O)O)c5cc(S(=O)(=O)O)cc(S(=O)(=O)O)c45)ccc3C)c2)c1 [suramin, Suramin Sodium] | inhibit FSH binding to its receptor
